Assay results as given in article PMC10030462, “SB2301-mediated perturbation of membrane composition in lipid droplets induces lipophagy and lipid droplets ubiquitination” (Communications Biology, 2023).

What was measured:
[1] = tested on: HeLa human cervical cancer cells; assay: cells; design: cellular lipid droplet reduction, fluorescence imaging high-content phenotypic screen; settings: 24 h, lipid droplet reduction in HeLa; for IC50: read-out: LD reduction (IC50, uM) Potency
Experimental: The LD reduction activity of these analogues (1–20) was initially evaluated in human cervical cancer HeLa cells at a fixed concentration (10 μM each) to determine the efficacy of LD reduction. In addition, potency was determined by measuring the half-maximal inhibitory concentration (IC50) (Supplementary Table 1). Compounds with high cytotoxicity and low water solubility were excluded during high-content phenotypic screening. […] We also observed a similar pattern of LD reduction in human hepatocellular carcinoma HepG2 cells (Supplementary Fig. 2A) and mouse hepatocyte AML12 cells (Supplementary Fig. 2B). Consistent with the reduction in cellular LDs, the cellular triglyceride (TG) content was reduced in a dose-dependent manner (Fig. 1E). Based on these findings, we conducted a further study to determine the mechanism by which SB2301 reduced cellular LDs.

[2] = molecular target: T1, PCYT2 (ethanolamine-phosphate cytidylyltransferase 2) (Homo sapiens, UniProt Q99447); assay: SPR (Biacore T100, immobilized human PCYT2, […] fit); also CETSA and TS-FITGE in HepG2 cells; format: binding
T1 construct: Human PCYT2 (Prospec, enz-221)
T1 sequence (Q99447 whole entry): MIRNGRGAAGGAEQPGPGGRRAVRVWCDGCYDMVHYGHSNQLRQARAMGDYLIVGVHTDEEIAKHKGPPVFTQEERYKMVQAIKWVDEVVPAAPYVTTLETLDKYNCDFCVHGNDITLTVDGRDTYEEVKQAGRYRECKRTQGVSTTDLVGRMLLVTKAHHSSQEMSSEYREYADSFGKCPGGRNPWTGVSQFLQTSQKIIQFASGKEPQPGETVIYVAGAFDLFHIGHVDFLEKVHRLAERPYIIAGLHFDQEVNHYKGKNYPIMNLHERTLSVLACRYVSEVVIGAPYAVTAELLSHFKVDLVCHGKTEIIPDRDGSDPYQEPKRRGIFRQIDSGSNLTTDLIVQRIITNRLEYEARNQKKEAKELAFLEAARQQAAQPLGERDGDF

IC50 [1] | Kd [2] | SMILES | inhibition at 10 µM [1]
14.8 µM |  | N#Cc1ccccc1-n1cc(-c2ccc3cc(-c4cccc(O)c4)ccc3n2)nn1 [compound 7, 7] | 30.4%
11.6 µM |  | Oc1cccc(-c2ccc3nc(-c4cn(-c5ccccc5O)nn4)ccc3c2)c1 [compound 13, 13] | 12.7%
20.6 µM |  | Oc1cccc(-c2ccc3nc(-c4cn(-c5cccc(F)c5)nn4)ccc3c2)c1 [compound 11, 11] | 19.2%
3.7 µM |  | COc1ccc(-n2cc(-c3ccc4cc(-c5cccc(O)c5)ccc4n3)nn2)cc1 [compound 3, 3] | 19%
32 µM |  | Oc1cccc(-c2ccc3nc(-c4cn(-c5ccc(C(F)(F)F)cc5)nn4)ccc3c2)c1 [compound 6, 6] | 35.9%
4.4 µM | ~26 µM | Oc1cccc(-c2ccc3nc(-c4cn(-c5ccccc5C(F)(F)F)nn4)ccc3c2)c1 [compound 4, SB2301] | 64.5%
10.1 µM |  | Oc1cccc(-c2ccc3nc(-c4cn(-c5ccccc5Cl)nn4)ccc3c2)c1 [compound 10, 10] | 2.7%
4.7 µM |  | Oc1cccc(-c2ccc3nc(-c4cn(-c5ccc(Br)cc5)nn4)ccc3c2)c1 [compound 12, 12] | 36.8%
27.6 µM |  | N#Cc1cccc(-n2cc(-c3ccc4cc(-c5cccc(O)c5)ccc4n3)nn2)c1 [compound 8, 8] | -7.1%
7.9 µM |  | O=[N+]([O-])c1ccccc1-n1cc(-c2ccc3cc(-c4cccc(O)c4)ccc3n2)nn1 [compound 14, 14] | 48.5%
6.7 µM |  | COc1ccccc1-n1cc(-c2ccc3cc(-c4cccc(O)c4)ccc3n2)nn1 [compound 1, 1] | 50%
